Experimental data reported in paper PMC8944797, “Novel Antimicrobial Peptides Designed Using a Recurrent Neural Network Reduce Mortality in Experimental Sepsis” (Antibiotics, 2022).

Columns and labels:
[1] = system: carbapenem-resistant isolates of Klebsiella aerogenes; assay: MIC, broth dilution method (EUCAST); type: cell-based; details: median (first and third quartile) over n = 12 isolates; Mueller-Hinton broth, 37 °C, 18–20 h; range tested 0 to 32 μg/mL
Procedure: (§1) The strains of bacteria were isolated in 2021 from patients in the intensive care unit of the Stavropol State Regional Clinical Hospital. Identification and determination of antibiotic resistance of bacterial isolates were carried out using the disk diffusion method as part of a routine microbiological study in accordance with the European Committee on Antimicrobial Susceptibility Testing (EUCAST) protocols in the Department of Clinical Microbiology of the Center of Clinical Pharmacology and Pharmacotherapy.
(§2) The study of the antimicrobial activity of the synthesized peptides was performed by the standard broth dilution method according to the EUCAST guidelines. Briefly, pure bacterial cultures were cultured on a solid nutrient media (mannitol salt agar, BioMedia, Russia). From a fresh morning culture, we prepared a suspension in sterile saline corresponding to a McFarland turbidity standard of 0.5 (which is equivalent to 1–2 × 10^8 CFU/mL). The resulting suspension was dissolved in the BBL^TM Mueller-Hinton broth (Becton, Dickinson and Company, Franklin Lakes, NJ, USA) to obtain an inoculum with an approximate concentration of 5 × 10^5 CFU/mL. The inoculum (100 μL per well) was added to the wells of a sterile 96-well microtiter plate with a U-shaped bottom (Medpolymer, St. Petersburg, Russia). After that, serial two-fold dilutions of tested peptides (100 μL per well) were added to the wells. There were also sterility control wells (Mueller-Hinton broth only, without bacteria) and growth control wells (bacterial inoculum without peptides). Then, the plates were incubated in a thermostat at 37 °C. […] The MIC was taken as the minimum peptide concentration at which there was no visual growth in the corresponding well [26]. The peptides were dissolved in the Mueller–Hinton broth. The experiments with each peptide and bacterial isolate were performed in triplicate (in different plates). MIC values were calculated as median values of three independent replicates (calculations are presented in Supplementary Tables S1–S3).
(§3) Calculations of MICs (median, first, and third quartile) were performed in Microsoft Excel (Supplementary Tables S1–S3). Survival analysis by the Kaplan–Meier method and log-rank (Mantel–Cox) test was performed using GraphPad Prism version 9.2.0 for macOS (GraphPad Software, San Diego, CA, USA, www.graphpad.com, accessed on 29 January 2022).

[2] = system: carbapenem-resistant isolates of Pseudomonas aeruginosa; assay: MIC, broth dilution method (EUCAST); type: cell-based; details: median (first and third quartile) over n = 17 isolates; Mueller-Hinton broth, 37 °C, 18–20 h; range tested 0 to 32 μg/mL
Procedure: as §1, §2, §3

[3] = system: carbapenem-resistant isolates of K. pneumoniae; assay: MIC, broth dilution method (EUCAST); type: cell-based, Klebsiella pneumoniae; details: median (first and third quartile) over n = 18 isolates; Mueller-Hinton broth, 37 °C, 18–20 h; range tested 0 to 32 μg/mL
Procedure: as §1
as §2, with “S1–S3). […]” for “S1–S3).”

[4] = system: K. pneumoniae-induced sepsis; assay: murine experimental model of K. pneumoniae-induced sepsis, survival; type: in vivo, ICR (CD-1) mice; details: for Survival proportions: single i.p. 100 μg dose, n=12
Procedure: To assess the effectiveness of the studied peptides, a murine model of lethal generalized infection was used. The model of sepsis makes it possible to perform a simple and rapid screening assessment of the effectiveness of new antimicrobial agents in vivo [22, 28].
The ICR (CD-1) laboratory mice (females with an average weight of 30 g) were maintained in the vivarium of the Stavropol State Medical University. The mice (four animals per cage) were housed in temperature-controlled rooms at 24 °C and 50–60% humidity with a 12 h/12 h light/dark cycle and water and food availability ad libitum.
The animals were injected with bacterial suspensions of one of the carbapenem-resistant isolates of K. pneumoniae (isolate #7, Supplementary Table S2) prepared from a fresh morning culture in accordance with the McFarland turbidity standard of 15 (which corresponds to an approximate concentration of 4.5 × 10^9 CFU/mL). To determine the turbidity of the suspension, a DEN-1 densitometer (Biosan, Latvia) was used.
At t = 0 min, all animals were infected with K. pneumoniae: 150 μL of a 4.5 × 10^9 CFU/mL suspension (approx. 6.75 × 10^8 CFU per mice). 30 min after infection, the mice received a single injection of peptides at a dose of 100 μg. Mortality was assessed every 24 h for 5 days. Moribund animals were killed humanely to avoid unnecessary distress.
as §3

Sequence	MIC [1]	MIC [2]	MIC [3]	Survival proportions ([4]; day 1 after infecting)	Survival proportions ([4]; day 2 after infecting)	Survival proportions ([4]; day 3 after infecting)	survival proportion by the end of the observation period ([4]; single intraperitoneal 100 μg dose 30 min after infection with 6.75 × 10^8 CFU K. pneumoniae, 5 days, n = 12 mice)
GILSSFKGVLKGAGKNLLGSLKDKLKN [PEP-174, synthesized LSTM RNN-generated peptide; probably printed as PEP-134 in b33]	not active	not active	not active	–	–	–	–
GIFSKLAGKKIKNLLISGLKNIGKEVGM [PEP-36, synthesized LSTM RNN-generated peptide]	not active	not active	not active	91,7%	75%	66,7%	66.7%
KWKLFKKIWSSVKLKS [PEP-136, synthesized LSTM RNN-generated peptide]	not active	not active	not active	–	–	–	–
